Like-named read-outs stand apart in the source and are kept apart here.
How the values were obtained:
[1] = in vivo; details: for t 1/2 Distribution phase / half-life / AUC / bioavailability / Cmax: mouse, in vivo
Excerpt: (§1) As for the chimeric mice, chimeric mice produced by Hiroshima Prefectural Institute of Industrial Science and Technology or PhoenixBio Co., Ltd. were used. To be more specific, mice in which human hepatocytes were engrafted and proliferated in the mouse liver were produced by transplanting human hepatocytes (IVT079, purchased from In Vitro Technology Inc., or BD51, purchased from BD Gentest Inc.) into the spleen of uPA(+/+)/SCID mice, which are mice having hepatic impairment and immunodeficiency. Mice in which 70% or more of the mouse liver had been replaced with human hepatocytes (high-replacement chimeric mice) and low-replacement chimeric mice in which although human hepatocytes had been transplanted, the replacement ratio was almost 0%, or untransplanted mice (mice with no replacement) were used (3 mice in each group). Further, as a control, 3 uPA(−/−)/SCID mice were used.
(§2) The concentration for administration of tolbutamide which is a standard drug for CYP2C9 was […]., and 4.175 mg of tolbutamide was weighed out and suspended in 1 ml of a CMC liquid in an agate mortar, and a 4.175 mg/ml suspension which is 5 times as high as the concentration for administration was prepared.
(§3) To the high-replacement chimeric mice, low-replacement chimeric mice (or mice with no replacement) and uPA(−/−)/SCID mice (3 mice in each group), 5 compounds were simultaneously administered orally by gavage or intravenously. The blood was collected from the tail vein of each mouse in an amount of 15 μl each at 0.25 (only intravenous administration), 0.5, 1, 2, 4 (only oral administration) and 8 hours after administration. Then, the blood was centrifuged at 3,500 rpm for 5 minutes, and the serum (supernatant) was collected and stored in a freezer at −30° C.
(§4) The serum samples were transported to Sumika Chemical Analysis Service, Ltd. while keeping it in dry ice, and subjected to measurement by LC-MS/MS according to the following procedure.
(§5) With regard to a liquid chromatograph, SIL-HTC and LC-10A series (Shimadzu Corporation) were used, and as a column, Synergi 4μ Polar-RP 80A, 150 mm (length)×2.00 mm (inner diameter), 4 μm (Phenomenex Inc.) was used at 30° C. As a mobile phase, methanol/a 10 mmol/l ammonium acetate solution/acetic acid (700/300/2, v/v/v) was used, and a flow rate was set at 0.2 ml/min. An injection volume was set at 2 μl, a measurement time was set at 10 min, and the temperature of an autosampler was set at 4° C. As a mass spectrometer, Tandem Mass Spectrometer API 4000 (Applied Biosystems/MDS SCIEX Inc.) was used. As API interface, Turbo V (ESI probe) was used, and as Ionization mode, Positive ion detection mode was used.
To Eppendorf tubes in which 5 μl of samples to be measured (serum) were contained, 100 μl of methanol was added, and 10 μl of 1 μg/ml of I.S. standard solution was added thereto, and then, the mixtures were thoroughly mixed by an ultrasonic treatment and a vortex mixer. The resulting mixtures were centrifuged (15,000 rpm, 5 min, room temperature), and the resulting supernatants were subjected to centrifugal filtration (10,000 rpm, 2 min, room temperature) with a filter, and the resulting filtrates were used as injection samples for LC-MS/MS.
(§6) The determined values of the drug concentration in the serum were calculated from the peak area ratio obtained by the LC-MS/MS measurement of the samples for addition calibration curve. […] From the graphs, the peak serum concentration (Cmax), half-life (t1/2), area under the curve (AUC), bioavailability and clearance were analyzed, and pharmacokinetics in human was predicted.

[2] = mouse, in vivo; for AUC: uPA(+/+)/SCID
Excerpt: as §1, §2, §3, §4, §5
To Eppendorf tubes in which 5 μl of samples to be measured (serum) were contained, 100 μl of methanol was added, and 10 μl of 1 μg/ml of I.S. standard solution was added thereto, and then, the mixtures were thoroughly mixed by an ultrasonic treatment and a vortex mixer. […]
as §6

[3] = test system: CYP2D6; test: in vivo; details: uPA(+/+)/SCID, po
Description: As for the chimeric mice, chimeric mice produced in PhoenixBio Co., Ltd. were used. To be more specific, 3 mice in which human hepatocytes were engrafted and proliferated in the mouse liver were produced by transplanting human hepatocytes (BD51, purchased from BD Gentist Inc.) into the spleen of uPA(+/+)/SCID mice, which are mice having hepatic impairment and immunodeficiency.
Paroxetine was dissolved in Milli-Q water (using a bath-type ultrasonic device) and prepared to give a final concentration of 6 mg/ml. The prepared drug was intraperitoneally administered to the mice at a dose of 5 μl/g b.w. (30 mg/kg b.w./day).
To the high-replacement chimeric mice, paroxetine was intraperitoneally administered for 3 days. Then, in the same manner as in Example 1, 5 compounds were simultaneously administered orally by gavage, the blood was collected over time, and the serum was stored.
The determination and analysis of drugs in the serum were carried out in the same manner as in Example 1.
The determined values of the drug concentration in the serum were calculated from the peak area ratio obtained by the LC-MS/MS measurement of the samples for addition calibration curve. […] From the graphs, Cmax, t1/2 and AUC were analyzed.

[4] = uPA(+/+)/SCID, po, t 1/2 Distribution phase
[5] = uPA(−/−)/SCID, iv, t 1/2 Distribution phase
[6] = uPA(−/−)/SCID, iv, t 1/2 Elimination phase

## Cn1c(=O)c2c(ncn2C)n(C)c1=O [Caffeine, caffeine]
[1]; uPA(+/+)/SCID, iv
  t 1/2 Distribution phase: 0.437^#3 hr
[1]; uPA(+/+)/SCID, iv, t 1/2 Distribution phase
  half-life: 0.809 h
[1]; uPA(+/+)/SCID, po
  t 1/2 Distribution phase: 2.16^#3 hr
[1]; [4]
  half-life: 3.45 h
[1]; uPA(−/−)/SCID, iv
  AUC: 4070 ng·h/mL
[1]; [5]
  half-life: 0.609 h
[1]; [6]
  half-life: 0.505 h
[1]; uPA(−/−)/SCID, po
  AUC: 33200 ng·h/mL
  bioavailability: 81.6%
  Cmax: 8800 ng/mL
[1]; uPA(−/−)/SCID, po, t 1/2 Elimination phase
  half-life: 0.82 h
[2]
  AUC in high-replacement chimeric mice compared with low-replacement chimeric mice: significantly lower
  AUC: 65700 ng·h/mL
[3]; mouse
  AUC: 97100 ng·h/mL
[3]; mouse, t 1/2 Distribution phase
  half-life: 3.4 h

## COc1ccc2c(c1)[C@]13CCCC[C@@H]1[C@H](C2)N(C)CC3 [Dextromethorphan, dextromethorphan]
[1]; donor hepatocytes IVT079
  AUC in high-replacement chimeric mice compared with low-replacement chimeric mice: significantly lower
[1]; uPA(+/+)/SCID, iv, intravenous administration, high-replacement chimeric mouse, donor IVT079
  AUC: 4030 ng·h/mL
[1]; uPA(+/+)/SCID, iv, intravenous administration, low-replacement chimeric mouse, donor IVT079
  AUC: 4600 ng·h/mL
[1]; uPA(+/+)/SCID, iv, t 1/2 Distribution phase, intravenous administration, high-replacement chimeric mouse, donor IVT079, time window per footnote
  half-life: 3.15 h
[1]; uPA(+/+)/SCID, iv, t 1/2 Distribution phase, intravenous administration, low-replacement chimeric mouse, donor IVT079, time window per footnote
  half-life: 0.414 h
[1]; uPA(+/+)/SCID, iv, t 1/2 Elimination phase, intravenous administration, high-replacement chimeric mouse, donor IVT079, 2-8 hr
  half-life: 1.23 h
[1]; uPA(+/+)/SCID, iv, t 1/2 Elimination phase, intravenous administration, low-replacement chimeric mouse, donor IVT079, 2-8 hr
  half-life: 1.5 h
[1]; uPA(+/+)/SCID, po, oral administration, high-replacement chimeric mouse, donor IVT079
  AUC: 1020 ng·h/mL
[1]; uPA(+/+)/SCID, po, oral administration, low-replacement chimeric mouse, donor IVT079
  AUC: 3650 ng·h/mL
[1]; uPA(+/+)/SCID, po, high-replacement chimeric mouse, donor IVT079
  bioavailability: 2.53%
[1]; uPA(+/+)/SCID, po, low-replacement chimeric mouse, donor IVT079
  bioavailability: 7.93%
[1]; uPA(+/+)/SCID, po, oral administration, high-replacement chimeric mouse, donor IVT079, serum
  Cmax: 276 ng/mL
[1]; uPA(+/+)/SCID, po, oral administration, low-replacement chimeric mouse, donor IVT079, serum
  Cmax: 836 ng/mL
[1]; uPA(+/+)/SCID, po, t 1/2 Distribution phase, oral administration, high-replacement chimeric mouse, donor IVT079, time window per footnote
  half-life: 1.15 h
[1]; uPA(+/+)/SCID, po, t 1/2 Distribution phase, oral administration, low-replacement chimeric mouse, donor IVT079, time window per footnote
  half-life: 2.88 h
[1]; uPA(+/+)/SCID, po, t 1/2 Elimination phase, oral administration, high-replacement chimeric mouse, donor IVT079, time window per footnote
  half-life: 10.4 h
[1]; uPA(+/+)/SCID, po, t 1/2 Elimination phase, oral administration, low-replacement chimeric mouse, donor IVT079, time window per footnote
  half-life: 9.98 h
[1]; uPA(−/−)/SCID, iv, intravenous administration, uPA(−/−)/SCID mouse
  AUC: 2610 ng·h/mL
[1]; uPA(−/−)/SCID, iv, t 1/2 Distribution phase, intravenous administration, uPA(−/−)/SCID mouse, time window per footnote
  half-life: 0.47 h
[1]; uPA(−/−)/SCID, po, oral administration, uPA(−/−)/SCID mouse
  AUC: 580 ng·h/mL
[1]; uPA(−/−)/SCID, po, uPA(−/−)/SCID mouse
  bioavailability: 2.22%
[1]; uPA(−/−)/SCID, po, oral administration, uPA(−/−)/SCID mouse, serum, dose per drug in table
  Cmax: 130 ng/mL
[1]; uPA(−/−)/SCID, po, t 1/2 Distribution phase, oral administration, uPA(−/−)/SCID mouse, time window per footnote
  half-life: 2.45 h
[3]; in vivo
  AUC: 358 ng·h/mL
[3]; in vivo, 30 mg/kg/day
  Cmax: 156 ng/mL
[3]; in vivo, t 1/2 Distribution phase, high-replacement chimeric mouse, donor BD51, inhibitor paroxetine, time window per footnote
  half-life: 1.44 h
[3]; in vivo, t 1/2 Elimination phase, high-replacement chimeric mouse, donor BD51, inhibitor paroxetine, time window per footnote
  half-life: 5.29 h

## CC[C@H]1OC(=O)[C@H](C)[C@@H](O[C@H]2C[C@@](C)(OC)[C@@H](O)[C@H](C)O2)[C@H](C)[C@@H](O[C@@H]2O[C@H](C)C[C@H](N(C)C)[C@H]2O)[C@](C)(O)C[C@@H](C)C(=O)[C@H](C)[C@@H](O)[C@]1(C)O [Erythromycin, erythromycin]
[1]; uPA(+/+)/SCID, po
  t 1/2 Distribution phase: 2.22^#3 hr
[1]; [4]
  half-life: 4.38 h
[1]; uPA(−/−)/SCID, iv
  AUC: 13800 ng·h/mL
[1]; [5]
  half-life: 0.35 h
[1]; [6]
  half-life: 1.1 h
[1]; uPA(−/−)/SCID, po
  AUC: 4080 ng·h/mL
  bioavailability: 2.95%
  Cmax: 1000 ng/mL
[2]
  AUC: 21300 ng·h/mL

Reference: patent US20090047655A1, “Method Of Screening Candidate Drug” (priority 2004, published 2009)
